≈ marks a conversion by molar mass, not a printed value.
Key:
MRSA MW2 cells = experiment: Bacterial membrane permeability assay (SYTOX Green); format: cell-based, S. aureus
Method: Bacterial membrane permeability assay. Exponential-phase or stationary-phase S. aureus MW2 cells prepared as described above under Killing kinetics assay and Persister killing assay, respectively, were washed 3 times with the same volume of PBS. The washed cells were adjusted to OD600=0.4 with PBS. SYTOX Green (Molecular Probes, Waltham, Mass., USA) was added to 10 mL of the diluted bacterial suspension to a final concentration of 5 μM and incubated for 30 min at room temperature in the dark. 50 μl of the bacterial/SYTOX Green suspension was mixed with 50 μl of phosphate buffered saline (PBS) containing twice the desired concentrations of compounds in black, clear-bottom, 96-well plates (Corning no. 3904). Fluorescence was measured at room temperature using a spectrophotometer (SpectraMax M2, Molecular Devices) with excitation and emission wavelengths of 485 nm and 525 nm, respectively. All experiments were conducted in biological triplicate.

[1] = tested on: MRSA strain MW2 persisters; experiment: Deep-seated mouse thigh infection model, bacterial load; format: in vivo; conditions: 30 mg/kg each agent, every 12 h for 3 days from 24 h post-infection
Method: Deep-seated mouse thigh infection model. […] Mice were euthanized at 96 h post-infection. […] Thighs were homogenized in PBS, serially diluted with PBS, and spot-plated on TSA plates.

[2] = tested on: MRSA MW2 biofilm persisters; experiment: Biofilm persister killing assay; format: cell-based, S. aureus
Method: Biofilm persister killing assay. An overnight culture of S. aureus MW2 cells was diluted 1:200 with TSB supplemented with 0.2% glucose and 3% NaCl. A 13 mm diameter Millipore mixed cellulose ester membrane (EMD Millipore GSWP01300) was placed at the bottom of each well of a 12-well assay plate (Falcon 353043). […] was added to each well and statically incubated at 37° C. for 24 h. The membranes were washed 3-times with PBS and transferred to a fresh 12-well plate, 1 mL PBS containing the desired concentration of antibiotics was added to each well, and then the plate was statically incubated at 37° C. for 24 h, The membranes were washed 3 times with PBS, placed in 2-mL microcentrifuge tubes containing 1 mL PBS, and sonicated in an ultrasonic bath (Fisher Scientific FS 30) for 10 min. The sonicated samples were serially diluted, spot-plated on TSA to enumerate the number of live cells. The experiment was conducted in biological triplicate.

[3] = tested on: panel of 27 Gram-positive pathogens; experiment: MIC assay, panel of Gram-positive pathogens; format: cell-based; conditions: Staphylococcus aureus; range over panel of 27 Gram-positive pathogens incl. VRSA and resistant Enterococcal strains (FIG. 6); read-out: minimum inhibitory concentrations
Method: Bacterial strains and growth conditions. S. aureus strains were grown in tryptic soy broth (TSB) (BD, Franklin Lakes, N.J., USA). E. faecium and E. faecalis strains were grown in brain-heart infusion (BHI) broth (BD, Franklin Lakes, N.J., USA), and four Gram-negative species, Klebsiella pneumoniae, Acinetobacter baumannii, Pseudomonas aeruginosa, and Enterobacter aerogenes were grown in Luria Bertani (LB) broth (BD, Franklin Lakes, N.J., USA). All bacteria were grown at 37° C. at 200 r.p.m.
Minimal inhibitory concentration (MIC) assay. The MICs of antibiotics were determined by the standard micro-dilution method recommended by the Clinical and Laboratory Standards Institute. MIC assays were conducted in biological triplicate.

[4] = tested on: exponential-phase S. aureus MW2; experiment: Killing kinetics assay; format: cell-based
Method: Killing kinetics assay. An overnight culture of S. aureus MW2 ^−was diluted in 25 mL TSB to a concentration of ˜10^5 CFU/mL. The diluted culture was grown to exponential-phase (˜2×10^7 CFU/mL) at 37° C. with shaking at 200 rpm. 1 mL of the exponential-phase culture was added to each well of a 96-well assay block (Corning Costar 3960) containing 1 mL of 2× of the desired concentrations of antibiotics dissolved in pre-warmed TSB at 37° C. The assay block was then incubated at 37° C. with shaking at 200 rpm. At every hour, 400 μl cultures were removed, washed once with PBS, serially diluted and spot-plated onto tryptic soy agar (TSA, BD) plates. The plates were incubated at 37° C. overnight, and colonies were counted to determine the titer of the cultures. These experiments were conducted in biological triplicate.

In the case of `Oc1c(Cl)cc(Cl)cc1Sc1cc(Cl)cc(Cl)c1O` [bithionol, 6,6′-thio-bis-(2,4-dichlorophenol)], the “SYTOX Green membrane permeabilization” value (MRSA MW2 cells; MRSA MW2 exponential-phase cells and/or persisters, in words) is reported as “dose-dependent membrane permeability”, the “concentration at which SYTOX Green fluorescence intensity was maximized” value (MRSA MW2 cells; decreased above 8 μg/mL) is reported as 4 µg/mL and the “effect on MRSA CFUs in the mouse thigh” value [1] is reported as “no effect”. For the same molecule, the “time to complete eradication of biofilm persisters” value ([2]; 32 μg/mL (32× MIC)) was no more than 24 h, the “concentration completely eradicating biofilm persisters” value ([2]; 24 h treatment) was 32 µg/mL and the MIC [3] was 0.5 to 2 µg/mL (≈ 1.4 to 5.62 µM). For the same molecule, the “time to eradicate ~10^7 CFU/mL exponential-phase S. aureus MW2” value ([4]; 10 μg/mL (10× MIC)) was no more than 3 h and the rate of killing ([4]; 10× MIC, compared with daptomycin and vancomycin) was “comparable to daptomycin (at 10× MIC) but significantly faster than the killing kinetics of vancomycin”.

— patent US20220324796A1, “ANTIBIOTIC COMPOUNDS” (The General Hospital Corporation, priority 2019, published 2022)
